Where a name gives a salt, the structure may show the parent alone.
target: T1, transglutaminase 2 (TGase 2) (Homo sapiens, UniProt P21980); test: TGase 2 transpeptidase fluorescence assay: incorporation of KXD into N,N-dimethylated-casein (Std and FPC formats); format: biochemical; details: standard format (Std): reactions terminated after 60 min, FI recorded, four-parameter fit
T1 sequence (P21980 1-687): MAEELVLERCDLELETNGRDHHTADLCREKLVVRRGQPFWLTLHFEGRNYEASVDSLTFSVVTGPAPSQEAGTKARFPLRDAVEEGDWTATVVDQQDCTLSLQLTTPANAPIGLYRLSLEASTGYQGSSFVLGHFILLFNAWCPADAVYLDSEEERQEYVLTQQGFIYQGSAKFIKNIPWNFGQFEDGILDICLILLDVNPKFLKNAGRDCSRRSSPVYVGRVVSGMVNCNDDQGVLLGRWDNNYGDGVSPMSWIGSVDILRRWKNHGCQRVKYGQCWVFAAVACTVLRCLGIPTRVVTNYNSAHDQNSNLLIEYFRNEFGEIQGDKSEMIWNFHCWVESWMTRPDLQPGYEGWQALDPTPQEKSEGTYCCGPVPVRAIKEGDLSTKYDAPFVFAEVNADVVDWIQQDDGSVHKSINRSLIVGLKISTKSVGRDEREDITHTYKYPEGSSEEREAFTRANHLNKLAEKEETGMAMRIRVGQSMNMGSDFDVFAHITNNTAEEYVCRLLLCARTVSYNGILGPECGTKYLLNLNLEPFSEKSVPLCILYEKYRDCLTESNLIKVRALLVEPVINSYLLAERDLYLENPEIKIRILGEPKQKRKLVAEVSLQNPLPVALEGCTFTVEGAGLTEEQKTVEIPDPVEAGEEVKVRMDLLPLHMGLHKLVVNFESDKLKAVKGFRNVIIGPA

Row | SMILES | IC50
1 | Cn1c(SCC(=O)NN)nc2scc(-c3ccccc3)c2c1=O [986-10, (3-Methyl-4-oxo-5-phenyl-3,4-dihydrothieno[2,3-d]pyrimidin-2-ylsulfanyl)acetic acid hydrazide] | 8.4 µM
2 | O=C(CSc1nc2scc(-c3ccc(F)cc3)c2c(=O)n1-c1ccc(F)cc1)NO [986-55, 2-[3,5-Bis-(4-fluorophenyl)-4-oxo-3,4-dihydrothieno[2,3-d]pyrimidin-2-ylsulfanyl]-N-hydroxyacetamide] | > 20 µM
3 | NNC(=O)CSc1nc2scc(-c3ccccc3)c2c(=O)n1-c1ccccc1Cl [986-23, [3-(2-Chlorophenyl)-4-oxo-5-phenyl-3,4-dihydrothieno[2,3-d]pyrimidin-2-ylsulfanyl]acetic acid hydrazide] | 1.8 µM
4 | Cc1csc2nc(SCC(=O)NN)n(-c3ccc(F)cc3)c(=O)c12 [986-11, [3-(4-Fluorophenyl)-5-methyl-4-oxo-3,4-dihydrothieno[2,3-d]pyrimidin-2-ylsulfanyl]acetic acid hydrazide] | 6.3 µM
5 | NCC(=O)CSc1nc2scc(-c3ccccc3)c2c(=O)n1-c1cccc(F)c1 [986-56, 2-(3-Amino-2-oxo-propylsulfanyl)-3-(3-fluorophenyl)-5-phenyl-3H-thieno[2,3-d]pyrimidin-4-one hydrochloride] | 5.3 µM
6 | NNC(=O)CSc1nc2scc(-c3ccccc3)c2c(=O)n1C1CCCCC1 [986-17, (3-Cyclohexyl-4-oxo-5-phenyl-3,4-dihydrothieno[2,3-d]pyrimidin-2-ylsulfanyl)acetic acid hydrazide] | 2.6 µM
7 | CN(CC(=O)NN)c1nc2scc(-c3ccccc3)c2c(=O)n1-c1ccccc1 [986-06, [Methyl-(4-oxo-3,5-diphenyl-3,4-dihydrothieno[2,3-d]pyrimidin-2-yl) -amino]acetic acid hydrazide] | > 20 µM
8 | NNC(=O)CSc1nc2scc(-c3ccccc3O)c2c(=O)n1-c1cccc(F)c1 [986-34, [3-(3-Fluorophenyl)-5-(2-hydroxyphenyl)-4-oxo-3,4-dihydrothieno[2,3-d]pyrimidin-2-ylsulfanyl]acetic acid hydrazide] | 1.4 µM
9 | NNC(=O)CSc1nc2scc(-c3ccccc3)c2c(=O)n1-c1cccc(Cl)c1 [986-24, [3-(3-Chlorophenyl)-4-oxo-5-phenyl-3,4-dihydrothieno[2,3-d]pyrimidin-2-ylsulfanyl]acetic acid hydrazide] | 1.5 µM
10 | COc1ccccc1-n1c(SCC(=O)NN)nc2scc(-c3ccccc3)c2c1=O [986-20, [3-(2-Methoxyphenyl)-4-oxo-5-phenyl-3,4-dihydrothieno[2,3-d]pyrimidin-2-ylsulfanyl]acetic acid hydrazide] | 2 µM
11 | CNC(=O)CSc1nc2scc(-c3ccc(F)cc3)c2c(=O)n1-c1ccc(F)cc1 [986-52, 2-[3,5-Bis-(4-fluorophenyl)-4-oxo-3,4-dihydrothieno[2,3-d]pyrimidin-2-ylsulfanyl]-N-methylacetamide] | > 20 µM
12 | CN(N)C(=O)CSc1nc2scc(-c3ccc(F)cc3)c2c(=O)n1-c1ccc(F)cc1 [986-50, [3,5-Bis-(4-fluorophenyl)-4-oxo-3,4-dihydrothieno[2,3-d]pyrimidin-2-ylsulfanyl]acetic acid N-methylhydrazide] | > 20 µM

From patent US20060183759A1, “Tissue transglutaminase inhibitors” (priority 2004, published 2006)
